Values of other authors as cited in patent US9011898B2, “Composition for active principles delivery containing a fatty acid excipient” (CID S.p.A., priority 2010, dated 2015).

Conditions: aqueous solutions

Stability in aqueous environments at neutral or basic pH with respect to acidic pH: less stable
Compound: CO[C@H]1C[C@@H]2CC[C@@H](C)[C@@](O)(O2)C(=O)C(=O)N2CCCC[C@H]2C(=O)O[C@H]([C@H](C)C[C@@H]2CC[C@@H](O)[C@H](OC)C2)CC(=O)[C@H](C)/C=C(\C)[C@@H](O)[C@@H](OC)C(=O)[C@H](C)C[C@H](C)/C=C/C=C/C=C/1C [Sirolimus]
